# Assays:
# [1] = Serum concentration of fispemifene in monkeys after administration in two different vehicles; format: in vivo; conditions: two female Cynomolgus monkeys, single oral dose 500 mg/kg, LC-MS/MS
# Experimental: Serum concentration of fispemifene in monkeys after administration of fispemifene in two different vehicles
# A pilot study on exposure of fispemifene in two female Cynomolgus monkeys ( #05084 and #06170) was carried out. Fispemifene was administered by single oral dosing of 500 mg/kg in two different vehicles, 0.5% carboxymethyl cellulose in water (CMC), and in corn oil. Blood samples were collected 0, 1, 2, 4, 6, 8, 12, 16 and 24 hours after dosing. Concentrations of fispemifene were determined using LC-MS/MS.
# [2] = Solubility in water; format: physicochemical
structure (smiles),measurement,setting,value
"OCCOCCOc1ccc(/C(=C(/CCCl)c2ccccc2)c2ccccc2)cc1 [Fispemifene, (Z)-2-{2-[4-(4-chloro-1,2-diphenylbut-1-enyl)phenoxy]ethoxy}ethanol]",fispemifene quantifiable in serum samples after drug administration,"[1]; CMC or corn oil vehicle, samples 1-24 h",quantifiable in all serum samples
same,"serum fispemifene concentration, corn oil vehicle relative to 0.5% CMC in aqueous solution","[1]; corn oil vs 0.5% carboxymethyl cellulose in water, 0-24 h",more than 10 fold
same,solubility in water,[2],only sparingly soluble
